Assay results published in article PMC5046141, “Discovery of Isoquinolinoquinazolinones as a Novel Class of Potent PPARγ Antagonists with Anti-adipogenic Effects” (Scientific Reports, 2016).
pKd: −log10 of the molar value.

Assays:
[1] = Cytotoxicity in 3T3-L1 cells; assay type: cell-based; details: mouse, read-out: cell viability
Description: Prior to testing the PPARγ antagonist potential of isoquinolinoquinazolinones, their cytotoxicity in 3T3-L1 cells (normal cells) was examined. […] These two compounds were then tested for PPARγ inhibitory activity.

PPARγ2-LBD = target: T1, PPARγ2-LBD (Mus musculus, UniProt P37238); experiment: Surface plasmon resonance binding to immobilized PPARγ2-LBD; details: for pKd / kon / koff: SPR, 25 °C, PBS; for pKd: read-out: KD (equilibrium dissociation constant); for kon: read-out: ka (association rate constant); for koff: read-out: kd (dissociation rate constant)
T1 construct: mouse PPARγ2 (residues 230–505) were expressed as N-terminal GST-tagged proteins; made in house; host or cells: E. coli BL21(DE3)
T1 sequence (P37238 230-505): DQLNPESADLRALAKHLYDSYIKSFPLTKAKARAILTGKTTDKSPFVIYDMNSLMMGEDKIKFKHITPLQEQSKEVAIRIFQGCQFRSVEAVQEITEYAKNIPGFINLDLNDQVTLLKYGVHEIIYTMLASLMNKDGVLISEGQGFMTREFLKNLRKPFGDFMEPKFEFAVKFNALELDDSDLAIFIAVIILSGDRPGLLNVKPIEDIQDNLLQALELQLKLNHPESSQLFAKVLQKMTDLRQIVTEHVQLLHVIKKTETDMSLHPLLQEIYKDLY
Description: PPARγ2 protein was immobilized on the sensor chip, and the response (in resonance unit; RU) as a result of binding was continuously recorded and presented graphically as a function of time[25]. The association rate (ka also known as on rate (kon)), dissociation rate (kd also known as off rate (koff)), and equilibrium dissociation constant (KD) were calculated using the Scrubber 2 program (Table 2).
The recombinant ligand-binding domains (LBDs) of mouse PPARγ2 (residues 230–505) were expressed as N-terminal GST-tagged proteins using the pGEX4T3 vector. pGXE4T3-mPPARγ2-LBD plasmid was transfected into BL21(DE3) competent cells and the cells were grown in LB medium containing 50 μg/mL ampicillin at 37 °C to an O. D. 600 of 0.6–0.8. The expression of PPARγ2-LBD was induced by the addition of 0.2 mM isopropyl β-D-thiogalactoside (IPTG). After treatment for 24 h at 22 °C, the cells were harvested and disrupted using sonication buffer [25 mM HEPES (pH 7.5), 150 mM NaCl, 1% NP-40, 0.25% sodium deoxycholate, 10% glycerol, 25 mM NaF, 1 mM EDTA, 1 mM Na3VO4, 250 μM PMSF, 10 μg/mL leupeptin, and 10 μg/ml aprotinin]. The supernatant was applied to glutathione-Sepharose beads for 24 h at 4 °C. The bound GST fusion proteins were washed with the sonication buffer and eluted by elution buffer [25 mM glutathione, 50 mM Tris pH 8.8, 200 mM NaCl].
Immobilization of the protein on the hydrophilic carboxymethylated dextran matrix of the sensor chip (Reichert) was carried out using a standard primary amine coupling reaction. Free carboxyl groups on the surface were modified by injecting a mixture of 0.1 M 1-ethyl-3-(3-dimethylaminopropyl) carbodiimide hydrochloride and 0.05 M N-hydroxysuccinimide at a flow rate of 20 μL/min to generate a reactive succinimide ester surface. Baseline equilibration was achieved by flushing the chip with PBS buffer for 1–2 h. All of the SPR data was collected at 25 °C with PBS as running buffer at a constant flow of 30 μL/min. All the sensorgrams were processed by using automatic correction for nonspecific bulk refractive index effects. All the kinetic analyses of the binding to PPARγ2-LBD were calculated using the Scrubber2 program (Bio-Logic Software).

3T3-L1 cells = experiment: Expression of adipogenesis markers (immunoblotting, RT-PCR) in MDI-differentiated 3T3-L1 cells; assay type: cell-based, mouse; details: after MDI-induced differentiation
Description: PPARγ alone or together with CCAAT-enhancer-binding protein α (C/EBPα) regulates many adipocyte genes that are involved in creating and maintaining the adipocyte phenotype. To further analyze the effect of isoquinolinoquinazolinones on adipogenesis, the expression of the adipocyte marker genes (C/EBPα and PPARγ) was analyzed. The differentiation of 3T3-L1 cells into adipocytes was induced by incubating in MDI induction medium for 2 days followed by incubation in differentiation medium for an additional 6 days. After MDI-induced adipocyte differentiation of 3T3-L1 cells, adipogenic transcriptional factors were analyzed. The transcriptional factors C/EBPα and PPARγ were inhibited by 8n and 8o in terms of both protein (Fig. 2C,D) and RNA (Fig. 2E,F) levels.
Total cellular RNA was prepared using TRIzol reagent (Life Technologies) according to the manufacturer’s instructions. Random-primed cDNAs were synthesized from 1 μg of total RNA using Super-Script III First-Strand Synthesis System (Life Technologies). The following conditions were used for PCR: initial denaturation at 94 °C for 1 min; 28–30 cycles of denaturation at 94 °C for 30 s, annealing at a temperature optimized for each primer pair for 30 s, extension at 72 °C for 30 s; final extension at 72 °C for 5 min. […] RNA levels were quantified by image software, Multi Gauge, V3.0 (FUJIFILM).
At the end of differentiation, 3T3-L1 cells were washed with PBS and lysed in a lysis buffer (1% NP-40, 25 mM HEPES (pH 7.5), 10% glycerol, 150 mM NaCl, 25 mM NaF, 0.25% sodium deoxycholate, 1 mM EDTA, 1 mM Na3VO4, 10 μg/mL aprotinin, 10 μg/mL leupeptin, and 250 μM phenylmethanesulfonyl fluoride). […] Horseradish peroxidase-labeled secondary antibodies were detected and visualized using chemiluminescent western blotting reagent (Millipore). Protein expression levels were quantified by image software, Multi Gauge, V3.0 (FUJIFILM).

Compound | viability at 25 µM [1] | pKd (PPARγ2-LBD) | kon (PPARγ2-LBD) | koff (PPARγ2-LBD) | binding affinity relative to GW9662 (less than) (PPARγ2-LBD; ratio of KD values) | binding affinity relative to rosiglitazone (more than) (PPARγ2-LBD; ratio of KD values) | C/EBPα and PPARγ expression, protein and RNA levels (3T3-L1 cells) | mRNA expression of adiponectin and fatty acid synthase (FAS) (3T3-L1 cells)
COc1cc2cc3n(c(=O)c2cc1OC)CNc1cc(Cl)ccc1-3 [Compound 8o, 3-Chloro-10,11-dimethoxy-5H-isoquinolino[2,3-c]quinazolin-8(6H)-one] | > 70% | 3.83 | 24 M⁻¹ s⁻¹ | 0.00351 s⁻¹ | 37 folds | 4 folds | inhibited | strongly reduced
O=C(Nc1ccccc1)c1cc([N+](=O)[O-])ccc1Cl [GW9662, reference compound] | – | 5.41 | 15.1 M⁻¹ s⁻¹ | 5.9e-05 s⁻¹ | – | – | – | –
COc1cc2cc3n(c(=O)c2cc1OC)CNc1ccc(Cl)cc1-3 [Compound 8n, 2-Chloro-10,11-dimethoxy-5H-isoquinolino[2,3-c]quinazolin-8(6H)-one] | > 70% | – | – | – | – | – | inhibited | –
